Results published in ChEMBL document CHEMBL1201862, “PubChem BioAssay data set” (2004).
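Protocol summary: plate cells (96-well), add compound at 5 concentrations, incubate 48 h, interpolate endpoints linearly. Abbreviation: GI50, concentration required for 50% inhibition of growth.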 Active and inactive are the calls of the source. Rule as the data show it: active = GI50 up to about 1.1 µM and inactive = higher.

Legend:
Test in all cases: inhibition of tumour cell growth, NCI panel, 48 h
HCT-116 = system: HCT-116
SNB-19 = system: SNB-19
KM12 = system: KM12
SF-295 = system: SF-295
MOLT-4 = system: MOLT-4
MDA-N = system: MDA-N
SK-MEL-5 = system: SK-MEL-5
OVCAR-4 = system: OVCAR-4
BT-549 = system: BT-549
IGROV-1 = system: IGROV-1
K562 = system: K562
SK-MEL-28 = system: SK-MEL-28
HCT-15 = system: HCT-15
Hs-578T = system: Hs-578T
UO-31 = system: UO-31
A549 = system: A549
MCF7 = system: MCF7
NCI-H226 = system: NCI-H226
SW-620 = system: SW-620

Cn1c(=O)c2nc(SCc3ccccn3)[nH]c2n(C)c1=S
GI50 (HCT-116): > 100 µM (inactive)
GI50 (SNB-19): 56 µM (inactive)
GI50 (KM12): > 100 µM (inactive)
GI50 (SF-295): 34.2 µM (inactive)
GI50 (MOLT-4): > 100 µM (inactive)
GI50 (MDA-N): > 100 µM (inactive)
GI50 (SK-MEL-5): > 100 µM (inactive)
GI50 (OVCAR-4): > 100 µM (inactive)
GI50 (BT-549): > 100 µM (inactive)
GI50 (IGROV-1): > 100 µM (inactive)
GI50 (K562): > 100 µM (inactive)
GI50 (SK-MEL-28): > 100 µM (inactive)
GI50 (HCT-15): > 100 µM
GI50 (Hs-578T): > 100 µM (inactive)
GI50 (UO-31): 70.5 µM (inactive)
GI50 (A549): > 100 µM (inactive)
GI50 (MCF7): > 100 µM (inactive)
GI50 (NCI-H226): 63.7 µM (inactive)
GI50 (SW-620): > 100 µM (inactive)

O=C1c2ccccc2C(=O)c2c(NCC(O)CO)ccc(NCC(O)CO)c21 (configuration not stated)
GI50 (HCT-116): 67 µM (inactive)
GI50 (SNB-19): 43.2 µM (inactive)
GI50 (MOLT-4): 32.2 µM (inactive)
GI50 (MDA-N): 61.2 µM (inactive)
GI50 (SK-MEL-5): 33.7 µM (inactive)
GI50 (OVCAR-4): > 100 µM (inactive)
GI50 (BT-549): 75.7 µM (inactive)
GI50 (IGROV-1): 49.4 µM (inactive)
GI50 (K562): 35.2 µM (inactive)
GI50 (SK-MEL-28): > 100 µM (inactive)
GI50 (HCT-15): 43.7 µM
GI50 (Hs-578T): 68.7 µM (inactive)
GI50 (UO-31): 17.8 µM (inactive)
GI50 (A549): > 100 µM (inactive)
GI50 (MCF7): 21.3 µM (inactive)
GI50 (NCI-H226): 51.4 µM (inactive)
GI50 (SW-620): 45.9 µM (inactive)

Oc1ccc2ccccc2c1-c1nnc(CCCCCCCCc2nnc(-c3c(O)ccc4ccccc34)o2)o1
GI50 (HCT-116): 1.18 µM (inactive)
GI50 (SNB-19): 3.53 µM (inactive)
GI50 (KM12): 27.2 µM (inactive)
GI50 (SF-295): 3.61 µM (inactive)
GI50 (MOLT-4): 0.449 µM (active)
GI50 (MDA-N): 4.23 µM (inactive)
GI50 (SK-MEL-5): 0.838 µM (active)
GI50 (OVCAR-4): 1.15 µM (inactive)
GI50 (BT-549): 23.1 µM (inactive)
GI50 (IGROV-1): 0.536 µM (active)
GI50 (K562): 0.955 µM (active)
GI50 (SK-MEL-28): 18.1 µM (inactive)
GI50 (HCT-15): 0.815 µM
GI50 (Hs-578T): > 84.9 µM (inactive)
GI50 (UO-31): 0.389 µM (active)
GI50 (A549): 3.85 µM (inactive)
GI50 (MCF7): 8.95 µM (inactive)
GI50 (NCI-H226): 10.4 µM (inactive)
GI50 (SW-620): 3.44 µM (inactive)

NC(=O)N/N=C(\Cc1nc2ccc(Cl)cc2nc1O)C(=O)Nc1ccc(Cl)cc1Cl
GI50 (HCT-116): > 100 µM (inactive)
GI50 (SNB-19): > 100 µM (inactive)
GI50 (KM12): > 100 µM (inactive)
GI50 (SF-295): > 100 µM (inactive)
GI50 (MOLT-4): > 100 µM (inactive)
GI50 (MDA-N): > 100 µM (inactive)
GI50 (SK-MEL-5): > 100 µM (inactive)
GI50 (OVCAR-4): > 100 µM (inactive)
GI50 (BT-549): > 100 µM (inactive)
GI50 (IGROV-1): 81.5 µM (inactive)
GI50 (K562): > 100 µM (inactive)
GI50 (SK-MEL-28): > 100 µM (inactive)
GI50 (HCT-15): > 100 µM
GI50 (Hs-578T): 57.4 µM (inactive)
GI50 (UO-31): > 100 µM (inactive)
GI50 (A549): > 100 µM (inactive)
GI50 (MCF7): > 100 µM (inactive)
GI50 (NCI-H226): 87.1 µM (inactive)
GI50 (SW-620): > 100 µM (inactive)

CC(C)NCC(O)c1cc(OCc2ccccc2)c(OCc2ccccc2)cc1NC(=O)CCC(=O)O (configuration not stated)
GI50 (HCT-116): 5.22 µM (inactive)
GI50 (SNB-19): 12.6 µM (inactive)
GI50 (KM12): 4.28 µM (inactive)
GI50 (SF-295): 3.94 µM (inactive)
GI50 (MOLT-4): 3.64 µM (inactive)
GI50 (MDA-N): 2.21 µM (inactive)
GI50 (SK-MEL-5): 2.1 µM (inactive)
GI50 (OVCAR-4): 11.5 µM (inactive)
GI50 (BT-549): 15.8 µM (inactive)
GI50 (IGROV-1): 11.4 µM (inactive)
GI50 (K562): 1.92 µM (inactive)
GI50 (SK-MEL-28): 4.08 µM (inactive)
GI50 (HCT-15): 3.24 µM
GI50 (Hs-578T): 11.6 µM (inactive)
GI50 (UO-31): 5.77 µM (inactive)
GI50 (A549): 11.8 µM (inactive)
GI50 (MCF7): 5.69 µM (inactive)
GI50 (NCI-H226): 15.7 µM (inactive)
GI50 (SW-620): 2.61 µM (inactive)

CC(C)OP(=O)(OC(C)C)C(C(F)(F)F)C(F)(F)F
GI50 (HCT-116): > 100 µM (inactive)
GI50 (SNB-19): > 100 µM (inactive)
GI50 (KM12): > 100 µM (inactive)
GI50 (SF-295): > 100 µM (inactive)
GI50 (MOLT-4): > 100 µM (inactive)
GI50 (MDA-N): > 100 µM (inactive)
GI50 (SK-MEL-5): > 100 µM (inactive)
GI50 (OVCAR-4): > 100 µM (inactive)
GI50 (BT-549): > 100 µM (inactive)
GI50 (IGROV-1): > 100 µM (inactive)
GI50 (K562): > 100 µM (inactive)
GI50 (SK-MEL-28): > 100 µM (inactive)
GI50 (HCT-15): > 100 µM
GI50 (Hs-578T): > 100 µM (inactive)
GI50 (UO-31): > 100 µM (inactive)
GI50 (A549): > 100 µM (inactive)
GI50 (MCF7): > 100 µM (inactive)
GI50 (NCI-H226): > 100 µM (inactive)
GI50 (SW-620): > 100 µM (inactive)

C1=N\c2ccc(cc2)-c2ccc(cc2)/N=C\c2ccc(cc2)OCc2cccc(n2)COc2ccc/1cc2
GI50 (HCT-116): > 100 µM (inactive)
GI50 (SNB-19): 38.9 µM (inactive)
GI50 (KM12): > 100 µM (inactive)
GI50 (SF-295): 79.4 µM (inactive)
GI50 (MOLT-4): 85.3 µM (inactive)
GI50 (MDA-N): > 100 µM (inactive)
GI50 (SK-MEL-5): > 100 µM (inactive)
GI50 (OVCAR-4): > 100 µM (inactive)
GI50 (BT-549): > 100 µM (inactive)
GI50 (IGROV-1): > 100 µM (inactive)
GI50 (K562): > 100 µM (inactive)
GI50 (SK-MEL-28): > 100 µM (inactive)
GI50 (HCT-15): > 100 µM
GI50 (Hs-578T): 18.2 µM (inactive)
GI50 (UO-31): > 100 µM (inactive)
GI50 (A549): > 100 µM (inactive)
GI50 (MCF7): > 100 µM (inactive)
GI50 (NCI-H226): 37 µM (inactive)
GI50 (SW-620): > 100 µM (inactive)

O=C(/C=C/c1ccccc1)C[C@@H](O)C[C@@H]1CC=CC(=O)O1
GI50 (HCT-116): 2.46 µM (inactive)
GI50 (SNB-19): 15.9 µM (inactive)
GI50 (KM12): 4.67 µM (inactive)
GI50 (SF-295): 13.7 µM (inactive)
GI50 (MOLT-4): 2.65 µM (inactive)
GI50 (MDA-N): 4.76 µM (inactive)
GI50 (SK-MEL-5): 12.4 µM (inactive)
GI50 (OVCAR-4): 15.2 µM (inactive)
GI50 (BT-549): 11.4 µM (inactive)
GI50 (IGROV-1): 6.85 µM (inactive)
GI50 (K562): 2.33 µM (inactive)
GI50 (SK-MEL-28): 11.5 µM (inactive)
GI50 (HCT-15): 10.2 µM
GI50 (Hs-578T): > 33.4 µM (inactive)
GI50 (UO-31): 9.18 µM (inactive)
GI50 (A549): 18.7 µM (inactive)
GI50 (MCF7): 3.94 µM (inactive)
GI50 (NCI-H226): > 100 µM (inactive)
GI50 (SW-620): 2.35 µM (inactive)

Cc1nc(C)c(N2CCNCC2)c(O)n1
GI50 (HCT-116): > 100 µM (inactive)
GI50 (SNB-19): > 100 µM (inactive)
GI50 (KM12): > 100 µM (inactive)
GI50 (SF-295): > 100 µM (inactive)
GI50 (MOLT-4): > 100 µM (inactive)
GI50 (MDA-N): > 100 µM (inactive)
GI50 (SK-MEL-5): > 100 µM (inactive)
GI50 (OVCAR-4): > 100 µM (inactive)
GI50 (BT-549): > 100 µM (inactive)
GI50 (IGROV-1): > 100 µM (inactive)
GI50 (K562): > 100 µM (inactive)
GI50 (SK-MEL-28): > 100 µM (inactive)
GI50 (HCT-15): > 100 µM
GI50 (Hs-578T): > 100 µM (inactive)
GI50 (UO-31): > 100 µM (inactive)
GI50 (A549): > 100 µM (inactive)
GI50 (MCF7): > 100 µM (inactive)
GI50 (NCI-H226): > 100 µM (inactive)
GI50 (SW-620): > 100 µM (inactive)

COc1cc(C(=O)O)ccc1OS(=O)(=O)O
GI50 (HCT-116): > 100 µM (inactive)
GI50 (SNB-19): > 100 µM (inactive)
GI50 (KM12): > 100 µM (inactive)
GI50 (SF-295): > 100 µM (inactive)
GI50 (MOLT-4): > 100 µM (inactive)
GI50 (MDA-N): > 100 µM (inactive)
GI50 (SK-MEL-5): > 100 µM (inactive)
GI50 (OVCAR-4): > 100 µM (inactive)
GI50 (BT-549): > 100 µM (inactive)
GI50 (IGROV-1): > 100 µM (inactive)
GI50 (K562): > 100 µM (inactive)
GI50 (SK-MEL-28): > 100 µM (inactive)
GI50 (HCT-15): > 100 µM
GI50 (Hs-578T): > 100 µM (inactive)
GI50 (UO-31): > 100 µM (inactive)
GI50 (A549): > 100 µM (inactive)
GI50 (MCF7): > 100 µM (inactive)
GI50 (NCI-H226): > 100 µM (inactive)
GI50 (SW-620): > 100 µM (inactive)

C=C(C)COc1cc(/N=C(/S)OC(C)C)ccc1Cl
GI50 (HCT-116): 15.2 µM (inactive)
GI50 (SNB-19): 18.8 µM (inactive)
GI50 (KM12): 20.2 µM (inactive)
GI50 (SF-295): 15.5 µM (inactive)
GI50 (MOLT-4): 12.1 µM (inactive)
GI50 (MDA-N): 16.7 µM (inactive)
GI50 (SK-MEL-5): 19.5 µM (inactive)
GI50 (OVCAR-4): 14.5 µM (inactive)
GI50 (BT-549): 10.8 µM (inactive)
GI50 (IGROV-1): 16.6 µM (inactive)
GI50 (K562): 11.7 µM (inactive)
GI50 (SK-MEL-28): 17.3 µM (inactive)
GI50 (HCT-15): 15.7 µM
GI50 (Hs-578T): 20.4 µM (inactive)
GI50 (UO-31): 13.5 µM (inactive)
GI50 (A549): 12.7 µM (inactive)
GI50 (MCF7): 15.4 µM (inactive)
GI50 (NCI-H226): 17.9 µM (inactive)
GI50 (SW-620): 13.7 µM (inactive)
